Measurements reported in article PMC2670829 (BMC Pharmacology, 2009).
“And” between values parts separate entries of the source, which are not always exact repeats. Equal entries are not always repeated. Where two headings read alike, the source gives them in different places. Marks after values point to notes of the source that are not given here.

What was measured:
[1] = tested on: subcutaneous Tsc2^-/- tumors (NTC/T2null cells); assay: Subcutaneous Tsc2-/- tumor model in nude mice, atorvastatin, doxycycline and rapamycin study; settings: for Efficacy on tumor growth and survival, in words / Median survival: doxycycline 10 mg/kg IP 5 days per week, rapamycin 8 mg/kg IP 3 days per week; for Median survival: time to tumor volume ~3000 mm^3, atorvastatin 20 mg/kg IP, start at ~50 mm^3
Protocol: (§1) Nude mice (strain CD-1nuBR, up to 6–8 weeks old) were obtained from Charles River Laboratories, Inc. (Wilmington, Massachusetts) and injected subcutaneously on the dorsal flank with 2.5 million NTC/T2null (Tsc2^-/-, Trp53^-/-) cells. As soon as tumors became visible, they were measured Monday through Friday using calipers. Tumor volumes were calculated using the formula: length × width × width × 0.5 [43]. All mice were euthanized once tumors reached ~3000 mm^3 in accordance with institutional animal care guidelines. Please note that survival analysis is done using time to tumor volume of ~3000 mm^3, because this is when animals are euthanized. […] Statistical comparison of tumor volume measurements between groups is done on the last day that relevant groups had at least four tumor measurements.
A cohort of 48 CD-1 nude mice was injected with NTC/T2null (Tsc2^-/-, Trp53^-/-) cells.
All drug treatments started when tumors reached a volume of ~50 mm^3 (day 1 of treatment), regardless of treatment schedule, and animals were euthanized when tumors reached a volume of ~3000 mm^3. If a volume of 40 mm^3 was reached on Thursday or Friday, treatment began that day. Otherwise, treatment was started on the day tumor volume was ≥50 mm^3.
Mice being treated with doxycycline were treated daily Monday through Friday with 200 μl of a 1.5 mg/ml (10 mg/kg) IP injection. […] All drug doses were calculated based on an average weight of 30 g per mouse. […] Doxycycline powder was obtained from Sigma-Aldrich Co. (St. Louis, MO) and was diluted in sterile PBS.

[2] = tested on: kidney cystadenomas in Tsc2^+/- mice; settings: cited from earlier work; for Percent decrease in tumor score per kidney with treatment / Tumor score per kidney (ave. ± Std. Err.): analysis at 12 months, ref Messina et al., 2007; for Tumor score per kidney (ave. ± Std. Err.): CCI-779 8 mg/kg per day, 5 days/week
[3] = in words
[4] = tested on: subcutaneous Tsc2^-/- tumors (NTC/T2null cells); assay: Subcutaneous Tsc2-/- tumor model in nude mice, sorafenib and rapamycin study; settings: rapamycin 8 mg/kg IP, sorafenib 60 mg/kg gavage, 5 days per week
Protocol: as §1
Two mice were excluded from the analyses. […] All drug doses were calculated based on an average weight of 30 g per mouse.

[5] = tested on: kidney cystadenomas in Tsc2^+/- mice; assay: Kidney tumor (cystadenoma) score by quantitative histopathology in Tsc2+/- mice; format: in vivo, mouse; settings: for Tumor score per kidney (ave. ± Std. Err.): daily IP treatment at 6–7 and 12–13 months (rapamycin 8 mg/kg, IFN-g 20,000 IU), weekly rapamycin 16 mg/kg at 7–12 months
Protocol: The Tsc2^+/- mouse is heterozygous for a deletion of exons 1–2 as previously described. The Tsc2^+/- cohort used in this experiment was obtained by crossing these Tsc2^+/- mice with wild-type C57BL/6 mice. In order to avoid bias due to strain variation, sibling littermates were used as controls. Tsc2^+/- mice were assigned to one of three cohorts: rapamycin 8 mg/kg IP, rapamycin 8 mg/kg plus IFN-g 20,000 units IP, and untreated. All mice receiving drug therapy were treated in three consecutive parts: In part one, mice were treated daily (5 days/week, Monday through Friday) for one month (6 months ≤ age < 7 months) with their assigned treatments by intraperitoneal injection (IP). In part two, all mice in both the rapamycin and rapamycin plus IFN-g cohorts stopped their assigned daily treatment and started a weekly 16 mg/kg maintenance dose of rapamycin for five months (7 months ≤ age < 12 months). In the final part, all mice restarted the same treatment they received from 6–7 months of age for one final month (see Table 1). The two month-long periods of daily rapamycin treatment before and after the maintenance treatment were included so that we can compare the results of this study with our previous preclinical studies that also include a total of two months of daily treatment without the weekly maintenance treatment phase. All mice were euthanized at 13 months of age according to institutional animal care guidelines. We evaluated kidney disease at 13 months in this experiment instead of 12 months in prior studies because kidney disease severity is likely to be higher in older mice, and we reasoned that this may allow us to better detect small differences between treatment groups. The severity of kidney disease was determined in all animals using quantitative histopathology as described below.
Rapamycin powder was obtained from LC Laboratories (Woburn, MA) and a 20 mg/ml stock of rapamycin was made in ethanol (stored at -20°C for up to one week). The stock solution was diluted to 1.2 mg/ml in vehicle (0.25% PEG, 0.25% Tween-80) for the 8 mg/kg dose and diluted to 2.4 mg/ml in vehicle for the 16 mg/kg dose. Murine IFN-g (R&D Systems, Minneapolis, MN) was diluted to 100,000 units/ml in sterile phosphate buffered saline (PBS) containing 0.1% mouse serum albumin (Sigma-Aldrich, Inc., St. Louis, MO) and stored at 4°C. […]
For histological quantification of kidney cystadenomas, each kidney was fixed and sliced at 1 mm intervals. […] All slides were coded to keep scoring blinded, and all cystadenomas were counted, measured, and scored according to the scale shown in Table 2 by two blinded researchers (CW and AN). Cystadenomas that extended into more than one 1 mm kidney slice were counted only once and scored according to the maximum diameter. […]

[6] = mouse, in vivo
Protocol: Animal behavior and health were monitored daily, and animals were weighed at the start of the study and at the time of necropsy. […] All mice from rapamycin treated cohorts were euthanized 24 hours after the last rapamycin treatment upon reaching the endpoint tumor volume. Upon sacrifice, whole blood and tumor were harvested for drug level testing.

in vivo = settings: mouse, intraperitoneal, 8 mg/kg
[7] = no reference given; cited from earlier work
[8] = mean ± standard error, rapamycin 8 mg/kg 3 days per week, atorvastatin 20 mg/kg, doxycycline 10 mg/kg 5 days per week, IP
[9] = 8 mg/kg daily × 2 months, total 9.6 mg per mouse, ref Messina et al. 2007

Structure (SMILES): CC(C)c1c(C(=O)Nc2ccccc2)c(-c2ccccc2)c(-c2ccc(F)cc2)n1CC[C@@H](O)C[C@@H](O)CC(=O)O [Atorvastatin]
- Efficacy on tumor growth and survival, in words ([1]; atorvastatin 20 mg/kg): did not reduce tumor growth or improve survival as a single agent
- Day 26, average tumor volume [1, 8]: 1931 ± 298 mm^3
- Median survival [1]: 32.5 days

Structure (SMILES): CO[C@H]1C[C@@H]2CC[C@@H](C)[C@@](O)(O2)C(=O)C(=O)N2CCCC[C@H]2C(=O)O[C@H]([C@H](C)C[C@@H]2CC[C@@H](OC(=O)C(C)(CO)CO)[C@H](OC)C2)CC(=O)[C@H](C)/C=C(\C)[C@@H](O)[C@@H](OC)C(=O)[C@H](C)C[C@H](C)/C=C/C=C/C=C/1C [CCI-779, temsirolimus]
- % Reduction in kidney tumors (kidney tumor number) ([2]; 4 mg/kg 3 times a week × 3 months, total 4.32 mg per mouse, ref Lee et al. 2005): 84% and 83.6%**
- % Reduction in kidney tumors (kidney tumor number) [2, 9]: 64%
- % Reduction in kidney tumors (kidney tumor score) [2, 9]: 63%*
- Percent decrease in tumor score per kidney with treatment ([2]; CCI-779 8 mg/kg per day at 6–8 months): 39.7%
- Percent decrease in tumor score per kidney with treatment ([2]; CCI-779 8 mg/kg per day at 10–12 months, 8 mg/kg/day): 64.4%
- Tumor score per kidney (ave. ± Std. Err.) ([2]; at 6–8 months): 6.00 ± 1.01
- Tumor score per kidney (ave. ± Std. Err.) ([2]; at 10–12 months): 3.54 ± 0.76

Structure (SMILES): C[C@H]1c2cccc(O)c2C(=O)C2=C(O)[C@]3(O)C(=O)C(C(N)=O)=C(O)[C@@H](N(C)C)[C@@H]3[C@@H](O)[C@@H]21 [Doxycycline]
- Efficacy on tumor growth and survival, in words ([1]; atorvastatin 20 mg/kg): not effective as either a single agent or in combination with rapamycin
- Day 26, average tumor volume [1, 8]: 1749 ± 352 mm^3
- Median survival [1]: 28 days
- Effect on the metabolism of rapamycin (rapamycin levels in combination cohorts) [3]: did not significantly affect the metabolism of rapamycin

Structure (SMILES): CO[C@H]1C[C@@H]2CC[C@@H](C)[C@@](O)(O2)C(=O)C(=O)N2CCCC[C@H]2C(=O)O[C@H]([C@H](C)C[C@@H]2CC[C@@H](O)[C@H](OC)C2)CC(=O)[C@H](C)/C=C(\C)[C@@H](O)[C@@H](OC)C(=O)[C@H](C)C[C@H](C)/C=C/C=C/C=C/1C [Rapamycin]
- Day 26, average tumor volume [1, 8]: 544 ± 110 mm^3
- Day 42, average tumor volume [1, 8]: 1784 ± 643 mm^3
- Median survival [1]: 41.5 days
- Day 16, average tumor volume ([4]; mean ± standard error): 284 ± 52 mm^3
- Day 43, average tumor volume ([4]; mean ± standard error): 2499 ± 222 mm^3
- Day 44, average tumor volume ([4]; mean ± standard error): 2607 ± 247 mm^3
- Median survival ([4]; time to tumor volume ~3000 mm^3, start at ~150 mm^3): 46 days
- Score of kidney lesion subtypes (cystic, pre-papillary, papillary, solid) ([5]; 13 months, in words, no statistics): reduced the score of all subtypes of kidney lesions
- Tumor score per kidney (ave. ± Std. Err.) ([5]; analysis at 13 months): 0.83 ± .018
- Tumor score per kidney (ave. ± Std. Err.) ([5]; analysis at 13 months, listed as rapamycin): 0.83 ± 0.18
- Percent decrease in tumor score per kidney with treatment ([5]; vs untreated, analysis at 13 months, daily treatment 6–7 and 12–13 months, weekly rapamycin 16 mg/kg 7–12 months): 94.5%
- Weight at Necropsy [6]: 35.6 ± 0.6 g
- Weight at Start [6]: 36.0 ± 0.6 g
- Weight gain [6]: -0.4 ± 0.6 g
- Weight gain, in words [6]: failed to gain weight
- concentration at 24 h (in vivo; CD-1 nude, tumor): 258 ± 91.6 ng/mL
- concentration at 24 h (in vivo; nude, whole blood): 42.9 ± 24.7 ng/mL
- Trough levels for standard rapamycin dosing in humans [7]: 3 to 20 ng/mL

Structure (SMILES): CNC(=O)c1cc(Oc2ccc(NC(=O)Nc3ccc(Cl)c(C(F)(F)F)c3)cc2)ccn1 [Sorafenib]
- Day 16, average tumor volume ([4]; mean ± standard error): 2209 ± 499 mm^3
- Efficacy on tumor growth and survival, in words [4]: not effective
- Effect on the metabolism of rapamycin (rapamycin levels in combination cohorts) [3]: did not significantly affect the metabolism of rapamycin
